Source: patent US20230159569A1, “DUAL HDAC6/PROTEASOME INHIBITORS, AND METHODS OF USE THEREOF” (UNIVERSITY OF MARYLAND, BALTIMORE, priority 2021, published 2023)

Tests used:
[1] = molecular target: HDAC1 (Homo sapiens, UniProt Q13547); test: HDAC activity assay (microfluidics mobility shift), HDAC1; assay type: biochemical; settings: compound concentration 1 μM; non-covalent dual inhibitors
Procedure: (§1) HDAC ACTIVITY ASSAYS: HDAC activity is measured using a microfluidics mobility shift platform. A fluorescently labeled substrate is reacted with the enzyme along with addition of test compounds followed by reading through microfluidic chips. Enzyme activity is determined through quantitative comparison of the […] that results from enzymatic activity.
(§2) The concentration of each non-covalent inhibitor compound tested in this study was 1 μM.

[2] = molecular target: T1, HDAC6 (Homo sapiens, UniProt Q9UBN7); test: HDAC activity assay (microfluidics mobility shift), HDAC6; assay type: biochemical; settings: for inhibition at 1 µM: compound concentration 1 μM, non-covalent dual inhibitors; for IC50 / HDAC1/HDAC6 (HDAC1 IC50/HDAC6 IC50, selectivity for HDAC6): covalent dual inhibitors
T1 sequence (Q9UBN7 1-1215): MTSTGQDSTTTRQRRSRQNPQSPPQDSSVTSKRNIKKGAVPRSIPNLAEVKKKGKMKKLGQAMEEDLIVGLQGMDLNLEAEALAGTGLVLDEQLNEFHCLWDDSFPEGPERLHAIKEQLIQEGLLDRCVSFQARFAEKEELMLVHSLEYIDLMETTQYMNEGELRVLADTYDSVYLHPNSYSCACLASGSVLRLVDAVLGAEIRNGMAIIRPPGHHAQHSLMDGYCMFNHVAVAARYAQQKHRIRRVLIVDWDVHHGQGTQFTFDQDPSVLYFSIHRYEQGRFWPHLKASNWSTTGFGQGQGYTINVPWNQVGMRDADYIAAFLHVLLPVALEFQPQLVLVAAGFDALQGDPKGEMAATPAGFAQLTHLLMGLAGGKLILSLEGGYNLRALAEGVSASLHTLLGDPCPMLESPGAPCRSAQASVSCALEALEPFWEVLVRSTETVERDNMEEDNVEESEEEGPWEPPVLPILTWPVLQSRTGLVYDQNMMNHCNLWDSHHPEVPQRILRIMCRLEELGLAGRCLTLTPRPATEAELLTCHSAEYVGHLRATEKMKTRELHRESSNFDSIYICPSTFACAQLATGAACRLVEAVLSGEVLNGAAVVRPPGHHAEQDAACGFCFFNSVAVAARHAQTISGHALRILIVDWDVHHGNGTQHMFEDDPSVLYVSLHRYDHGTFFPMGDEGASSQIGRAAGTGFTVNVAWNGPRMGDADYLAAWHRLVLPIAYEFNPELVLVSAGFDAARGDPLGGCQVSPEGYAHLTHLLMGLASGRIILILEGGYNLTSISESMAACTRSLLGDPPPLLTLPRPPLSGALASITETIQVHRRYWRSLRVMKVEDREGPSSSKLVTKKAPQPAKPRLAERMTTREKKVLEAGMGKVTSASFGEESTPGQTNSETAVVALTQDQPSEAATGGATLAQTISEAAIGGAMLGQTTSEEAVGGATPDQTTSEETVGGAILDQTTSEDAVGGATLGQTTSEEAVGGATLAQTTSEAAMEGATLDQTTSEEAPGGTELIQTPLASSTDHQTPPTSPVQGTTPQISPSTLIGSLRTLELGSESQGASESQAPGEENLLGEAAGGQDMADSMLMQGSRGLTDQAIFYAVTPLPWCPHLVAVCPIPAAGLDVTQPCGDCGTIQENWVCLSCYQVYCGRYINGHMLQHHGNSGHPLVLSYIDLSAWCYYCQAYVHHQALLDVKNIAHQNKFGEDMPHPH
Procedure: as §1, §2

HDAC1, sequence (Q13547 whole entry): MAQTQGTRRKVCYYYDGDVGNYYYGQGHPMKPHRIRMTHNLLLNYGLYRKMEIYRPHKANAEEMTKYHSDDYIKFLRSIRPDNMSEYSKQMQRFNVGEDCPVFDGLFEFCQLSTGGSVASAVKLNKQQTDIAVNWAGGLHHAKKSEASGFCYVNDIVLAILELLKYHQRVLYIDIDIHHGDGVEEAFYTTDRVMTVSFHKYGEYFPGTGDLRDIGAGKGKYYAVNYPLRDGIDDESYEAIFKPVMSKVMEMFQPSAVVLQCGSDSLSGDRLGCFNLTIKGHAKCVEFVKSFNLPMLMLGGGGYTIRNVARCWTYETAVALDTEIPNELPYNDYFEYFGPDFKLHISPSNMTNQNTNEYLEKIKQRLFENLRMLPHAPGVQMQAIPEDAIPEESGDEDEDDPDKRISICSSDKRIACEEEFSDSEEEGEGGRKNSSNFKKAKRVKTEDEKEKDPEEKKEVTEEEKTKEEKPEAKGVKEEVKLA

inhibition at 1 µM [1] [%] | potency and selectivity for HDAC6 ([2]; FIG. 11, fold improvement over HDAC1 inhibition) | inhibition at 1 µM [2] [%] | IC50 [2] [nM] | HDAC1/HDAC6 (HDAC1 IC50/HDAC6 IC50, selectivity for HDAC6) [2] | SMILES
– | – | – | > 30000 | – | CC(C)C[C@H](NC(=O)[C@H](Cc1ccccc1)NC(=O)c1ccc(C(=O)NOC2CCCCO2)cc1)B1OC2C[C@H]3C[C@H](C3(C)C)[C@@]2(C)O1 (stereo partly drawn) [AMC-2-248]
– | – | – | 198 | 14.3 | CC(C)C[C@H](NC(=O)[C@H](Cc1ccccc1)NC(=O)c1ccc(C(=O)NO)cc1)B1OC2C[C@H]3C[C@H](C3(C)C)[C@@]2(C)O1 (stereo partly drawn) [AMC-3-017]
– | – | – | 8120 | >3.69 | CCNC(=O)ONC(=O)c1ccc(C(=O)N[C@@H](Cc2ccccc2)C(=O)N[C@@H](CC(C)C)B2OC3C[C@H]4C[C@H](C4(C)C)[C@@]3(C)O2)cc1 (stereo partly drawn) [AMC-3-019]
– | – | – | 884 | >33.9 | CC(C)C[C@H](NC(=O)CNC(=O)c1ccc(C(=O)NOC(=O)Nc2ccccc2)cc1)B1OC2C[C@H]3C[C@H](C3(C)C)[C@@]2(C)O1 (stereo partly drawn) [AMC-3-030]
– | – | – | 258 | 20.4 | CC(C)C[C@H](NC(=O)CNC(=O)c1ccc(C(=O)NO)cc1)B1OC2C[C@H]3C[C@H](C3(C)C)[C@@]2(C)O1 (stereo partly drawn) [AMC-3-031]
– | – | – | 6320 | 4.75 | CC(C)C[C@H](NC(=O)[C@H](Cc1ccccc1)NC(=O)c1ccc(C(=O)NOC(=O)NCc2ccccc2)cc1)B1OC2C[C@H]3C[C@H](C3(C)C)[C@@]2(C)O1 (stereo partly drawn) [AMC-3-033]
– | – | – | 61 | 0.93 | CC(C)C[C@H](NC(=O)[C@H](Cc1ccccc1)NC(=O)c1ccc(/C=C/C(=O)NO)cc1)B1OC2C[C@H]3C[C@H](C3(C)C)[C@@]2(C)O1 (stereo partly drawn) [AMC-3-041]
– | – | – | 3420 | 8.77 | CC(C)C[C@H](NC(=O)CNC(=O)c1ccc(C(=O)NOC(=O)NCc2ccccc2)cc1)B1OC2C[C@H]3C[C@H](C3(C)C)[C@@]2(C)O1 (stereo partly drawn) [AMC-3-047]
– | – | – | 5380 | >5.58 | CCNC(=O)ONC(=O)c1ccc(C(=O)NCC(=O)N[C@@H](CC(C)C)B2OC3C[C@H]4C[C@H](C4(C)C)[C@@]3(C)O2)cc1 (stereo partly drawn) [AMC-3-048]
– | – | – | 1150 | 2.30 | CCNC(=O)ONC(=O)/C=C/c1ccc(C(=O)NCC(=O)N[C@@H](CC(C)C)B2OC3C[C@H]4C[C@H](C4(C)C)[C@@]3(C)O2)cc1 (stereo partly drawn) [AMC-3-055]

The next lines start with the compound.

SMILES | inhibition at 1 µM [1] [%] | potency and selectivity for HDAC6 ([2]; FIG. 11, fold improvement over HDAC1 inhibition) | inhibition at 1 µM [2] [%] | IC50 [2] [nM] | HDAC1/HDAC6 (HDAC1 IC50/HDAC6 IC50, selectivity for HDAC6) [2]
C[C@H](NC(=O)[C@H](CC(=O)NCC(C)(C)C)NC(=O)CCC(=O)Nc1ccc(C(=O)NO)cc1)C(=O)NCc1ccc(F)cc1F [AMC-2-036] | 61 | highly potent | 95 | – | –
C[C@H](NC(=O)[C@H](CC(=O)NCC(C)(C)C)NC(=O)C(=O)c1c[nH]c2ccccc12)C(=O)NCc1ccc(F)cc1F [AMC-2-052] | 41 | – | 59 | – | –
C[C@H](NC(=O)[C@H](CC(=O)NCC(C)(C)C)NC(=O)CCCCCCC(=O)NO)C(=O)NCc1ccc(F)cc1F [AMC-2-067] | 74 | – | 86 | – | –
C[C@H](NC(=O)[C@H](CC(=O)NCC(C)(C)C)NC(=O)c1ccc(C(=O)Nc2ccccc2N)cc1)C(=O)NCc1ccc(F)cc1F [AMC-2-091] | 65 | – | 13 | – | –
COC(=O)c1ccc(C(=O)N[C@@H](CC(=O)NCC(C)(C)C)C(=O)N[C@@H](C)C(=O)NCc2ccc(F)cc2F)cc1 [AMC-2-152] | 3 | – | 18 | – | –
COC(=O)CCCCCCC(=O)N[C@@H](CC(=O)NCC(C)(C)C)C(=O)N[C@@H](C)C(=O)NCc1ccc(F)cc1F [AMC-2-198] | 1 | – | 8 | – | –
C[C@H](NC(=O)[C@H](CC(=O)NCC(C)(C)C)NC(=O)CCCCCCC(=O)O)C(=O)NCc1ccc(F)cc1F [AMC-2-204] | 3 | – | 8 | – | –
C[C@H](NC(=O)[C@H](CC(=O)NCC(C)(C)C)NC(=O)c1ccc(C(=O)O)cc1)C(=O)NCc1ccc(F)cc1F [AMC-2-225] | -3 | – | 4 | – | –
